Active and inactive are the calls of the source. The rule behind the calls is not given here.
Columns and labels:
[1] = Inhibition of IL4 and LPS-induced IgE production in BALB/c mouse spleen B cell after 6 days by ELISA; format: functional, tissue-based; conditions: 144 h
[2] = system: K562; experiment: Cytotoxicity against human K562 cells; format: functional, cell-based
[3] = Inhibition of PHA-induced BALB/c mouse T cell proliferation at 10 uM; format: cell-based
[4] = Cytotoxicity against BALB/c mouse B cells assessed as cell viability; format: cell-based
[5] = Selectivity for IgE production in BALB/c mouse spleen B cells over IgM production in BALB/c mouse spleen B cells; format: functional
[6] = Selectivity for IgE production in BALB/c mouse spleen B cells over IgG2a production in BALB/c mouse spleen B cells; format: functional
[7] = system: B; experiment: Inhibition of IL4 and LPS-induced IgM production in BALB/c mouse spleen B cell after 6 days by ELISA; format: functional, tissue-based
[8] = system: B; experiment: Inhibition of IL4 and LPS-induced IgG production in BALB/c mouse spleen B cell after 6 days by ELISA; format: functional, tissue-based
[9] = Selectivity for IgE production in BALB/c mouse spleen B cells over IgG1 production in BALB/c mouse spleen B cells; format: functional
[10] = system: Lymphocyte; experiment: Immunosuppressive activity in rat lymphocytes assessed as inhibition of mixed-lymphocyte reaction; format: functional, cell-based
[11] = system: Lymphocyte; experiment: Immunosuppressive activity in rat lymphocytes assessed as inhibition of mixed-lymphocyte reaction at 10 uM; format: functional, cell-based

Compound | IC50 [1] [µM] | other results
CNCC1=C(C)C(=O)[C@]2(O1)C(=O)N[C@@](OC)(C(=O)c1ccccc1)[C@@H]2O | > 10 | –
CCCCCC[C@H](O)[C@H](O)C1=C(C)C(=O)[C@]2(O1)C(=O)N[C@@](OC)(C(=O)c1ccccc1)[C@@H]2O | > 10 | –
COC(=O)CC[C@H](O)[C@H](O)C1=C(C)C(=O)[C@]2(O1)C(=O)N[C@@](OC)(C(=O)c1ccccc1)[C@@H]2O | > 10 | –
CO[C@@]1(C(=O)c2ccccc2)NC(=O)[C@]2(OC(C=O)=C(C)C2=O)[C@H]1O | > 10 | –
CC/C=C\[C@@H]1O[C@H]1C1=C(C)C(=O)[C@]2(O1)C(=O)N[C@@](OC)(C(=O)c1ccccc1)[C@@H]2O | > 10 | –
CCOC(=O)/C=C/C1=C(C)C(=O)[C@]2(O1)C(=O)N[C@@](OC)(C(=O)c1ccccc1)[C@@H]2O | > 10 | –
CC/C=C\[C@H](O)[C@H](O)C1=C(C)C(=O)[C@]2(O1)C(=O)N[C@@](OC)(C(=O)c1ccccc1F)[C@@H]2O | > 10 | –
CC/C=C\[C@H](O)[C@H](O)C1=C(C)C(=O)[C@]2(O1)C(=O)N[C@@](OC)(C(=O)c1cccc(F)c1)[C@@H]2O | > 10 | –
CO[C@@]1(C(=O)c2ccccc2)NC(=O)[C@]2(OC(/C=C/C=O)=C(C)C2=O)[C@H]1O | > 10 | –
CO[C@@]1(C(=O)c2ccccc2)NC(=O)[C@]2(OC(/C=C/C#N)=C(C)C2=O)[C@H]1O | > 10 | –
COC(=O)/C=C/[C@H](O)[C@H](O)C1=C(C)C(=O)[C@]2(O1)C(=O)N[C@@](OC)(C(=O)c1ccccc1)[C@@H]2O | > 10 | –
CO[C@@]1(C(=O)c2ccccc2)NC(=O)[C@]2(OC(CNCc3ccccc3)=C(C)C2=O)[C@H]1O | > 10 | –
C=CCNCC1=C(C)C(=O)[C@]2(O1)C(=O)N[C@@](OC)(C(=O)c1ccccc1)[C@@H]2O | > 10 | –
CO[C@@]1(C(=O)c2ccccc2)NC(=O)[C@]2(OC(CN(C)Cc3ccccc3)=C(C)C2=O)[C@H]1O | > 10 | –
CC/C=C/[C@H](O)[C@H](O)C1=C(C)C(=O)[C@]2(O1)C(=O)N[C@@](OC)(C(=O)c1ccccc1)[C@@H]2O | > 10 | –
C/C=C/[C@H](O)[C@H](O)C1=C(C)C(=O)[C@]2(O1)C(=O)N[C@@](OC)(C(=O)c1ccccc1)[C@@H]2O | > 10 | –
CCOC(=O)/C=C\C1=C(C)C(=O)[C@]2(O1)C(=O)N[C@@](OC)(C(=O)c1ccccc1)[C@@H]2O | > 10 | –
CO[C@@]1(C(=O)c2ccccc2)NC(=O)[C@]2(OC([C@@H](O)[C@@H](O)C=C3CCCCC3)=C(C)C2=O)[C@H]1O | > 10 | –
CCOC(=O)/C(C)=C/C1=C(C)C(=O)[C@]2(O1)C(=O)N[C@@](OC)(C(=O)c1ccccc1)[C@@H]2O | > 10 | –
CO[C@@]1(C(=O)c2ccccc2)NC(=O)[C@]2(OC(CO)=C(C)C2=O)[C@H]1O | > 10 | –
CO[C@@]1(C(=O)c2ccccc2)NC(=O)[C@]2(OC(/C=C/C=C/C(C)=O)=C(C)C2=O)[C@H]1O | > 10 | –
CCC[C@H](O)[C@H](O)C1=C(C)C(=O)[C@]2(O1)C(=O)N[C@@](OC)(C(=O)c1ccccc1)[C@@H]2O | > 10 | –
CC/C=C\[C@H]1OC(C)(C)O[C@@H]1C1=C(C)C(=O)[C@]2(O1)C(=O)N[C@@](OC)(C(=O)c1ccccc1)[C@@H]2O | > 10 | –

Compound | IC50 [1] [µM] | other results
CO[C@@]1(C(=O)c2ccccc2)NC(=O)[C@]2(OC([C@@H](O)[C@@H](O)CCCCc3ccccc3)=C(C)C2=O)[C@H]1O | > 10 | –
CCCCNCC1=C(C)C(=O)[C@]2(O1)C(=O)N[C@@](OC)(C(=O)c1ccccc1)[C@@H]2O | 3.1 | IC50 [2]: > 10 µM; inhibition at 10 µM [3]: 2%; IC50 [4]: > 10 µM
CO[C@@]1(C(=O)c2ccccc2)NC(=O)[C@]2(OC(CN3CCCCC3)=C(C)C2=O)[C@H]1O | > 10 | –
CO[C@@]1(C(=O)c2ccccc2)NC(=O)[C@]2(OC([C@@H](O)[C@@H](O)/C=C/CCc3ccccc3)=C(C)C2=O)[C@H]1O | > 10 | –
CC/C=C\[C@H](O)[C@H](O)C1=C(C)C(=O)[C@]2(O1)[C@@H](OC)N[C@@](OC)(C(=O)c1ccccc1)[C@@H]2O [6-O-METHOXYPSEUROTIN A] | > 10 | –
CC/C=C\[C@H](O)[C@H](O)C1=C(C)C(=O)[C@]2(O1)C(=O)N(C)[C@@](OC)(C(=O)c1ccccc1)[C@@H]2O [7-N-METHYLPSEUROTIN A] | > 10 | –
CC/C=C\[C@H](O)[C@H](O)C1=C(C)C(=O)[C@]2(O1)C(=O)N[C@@](OCC)(C(=O)c1ccccc1)[C@@H]2O [8-ETHOXYPSEUROTIN A] | > 10 | –
CC/C=C\[C@H](O)[C@H](O)C1=C(C)C(=O)[C@]2(C[C@](OC)(C(=O)c3ccccc3)NC2=O)O1 [9-DEOXYPSEUROTIN A] | > 10 | –
CC/C=C\[C@H](O)CC1=C(C)C(=O)[C@]2(O1)C(=O)N[C@@](OC)(C(=O)c1ccccc1)[C@@H]2O [10-DEOXYPSEUROTIN A] | 0.066 | IC50 [2]: > 10 µM; Ratio [5]: 44; Ratio [6]: 23; inhibition at 10 µM [3]: 0%; Activity [7]: Active; Activity [8]: Active; IC50 [4]: 4.4 µM; Ratio [9]: 3.5
CC/C=C\[C@H](OC)[C@H](O)C1=C(C)C(=O)[C@]2(O1)C(=O)N[C@@](OC)(C(=O)c1ccccc1)[C@@H]2O [11-O-METHYLPSEUROTIN A] | > 10 | –
CCC1CC1[C@H](O)[C@H](O)C1=C(C)C(=O)[C@]2(O1)C(=O)N[C@@](OC)(C(=O)c1ccccc1)[C@@H]2O (stereo partly specified) [12,13-CYCLOPROPYLPSEUROTIN A] | > 10 | –
CC[C@H](Br)[C@@H](Br)[C@H](O)[C@H](O)C1=C(C)C(=O)[C@]2(O1)C(=O)N[C@@](OC)(C(=O)c1ccccc1)[C@@H]2O [12,13-DIBROMOPSEUROTIN A] | > 10 | –
CCCC[C@H](O)[C@H](O)C1=C(C)C(=O)[C@]2(O1)C(=O)N[C@@](OC)(C(=O)c1ccccc1)[C@@H]2O [12,13-DIHYDROXYPSEUROTIN A] | > 10 | –
CCC1OC1[C@H](O)[C@H](O)C1=C(C)C(=O)[C@]2(O1)C(=O)N[C@@](OC)(C(=O)c1ccccc1)[C@@H]2O (stereo partly specified) [13-EPOXYPSEUROTIN A] | > 10 | –
CC/C=C\[C@H](O)[C@H](O)C1=C(C)C(=O)[C@]2(O1)C(=O)N[C@@](OC)(C(O)c1ccccc1)[C@@H]2O (stereo partly specified) [17-DIHYDROPSEUROTIN A] | > 10 | –
C[C@]12C=CC(=O)C=C1CC[C@@H]1[C@@H]2[C@@H](O)C[C@@]2(C)[C@H]1CC[C@]2(O)C(=O)CO [PREDNISOLONE] | 0.0059 | Ratio [5]: 0.4; Ratio [6]: 0.8; inhibition at 10 µM [3]: 84%; IC50 [4]: > 10 µM; Ratio [9]: 1; IC50 [10]: 0.078 µM
CC/C=C\[C@H](O)[C@H](O)C1=C(C)C(=O)[C@]2(O1)C(=O)N[C@@](OC)(C(=O)c1ccccc1)[C@@H]2O [PSEUROTIN A] | 3.6 | IC50 [2]: > 10 µM; inhibition at 10 µM [3]: 0%; Activity [11]: inactive; IC50 [4]: > 10 µM; IC50 [10]: > 10 µM
CO[C@@]1(C(=O)c2ccccc2)NC(=O)[C@]2(OC([C@@H](O)[C@@H](O)/C=C/C(C)=O)=C(C)C2=O)[C@H]1O [PSEUROTIN E] | > 10 | –
CC/C=C\[C@H](O)[C@H](O)C1=C(C)C(=O)[C@]2(O1)C(=O)N[C@@](O)(C(=O)c1ccccc1)[C@@H]2O [PSEUROTIN F2] | > 10 | –
CC/C=C\[C@H]1O[C@@H]1C1=C(C)C(=O)[C@]2(O1)C(=O)N[C@@](OC)(C(=O)c1ccccc1)[C@@H]2O [SYNERAZOL] | 0.26 | IC50 [2]: > 10 µM; inhibition at 10 µM [3]: 54%; IC50 [4]: > 10 µM; IC50 [10]: 3.1 µM
CC/C=C\[C@H](OC(C)=O)[C@H](OC(C)=O)C1=C(C)C(=O)[C@]2(O1)C(=O)N(C(C)=O)[C@@](OC)(C(=O)c1ccccc1)[C@@H]2OC(C)=O [TETRAACETYLPSEUROTIN A] | > 10 | –
CC/C=C\[C@H](OC(C)=O)[C@H](OC(C)=O)C1=C(C)C(=O)[C@]2(O1)C(=O)N[C@@](OC)(C(=O)c1ccccc1)[C@@H]2OC(C)=O [TRIACETYLPSEUROTIN A] | > 10 | –
